Experimental data as given in patent US7709539B2, “Therapeutic use of resveratrol for hyperglycemia” (Chang Gung University, priority 2004, dated 2010).

Columns and labels:
Assay type in all cases: in vivo, rat
NIDDM SD rats = assay: Antihyperglycemic effect in NIDDM SD rats (nicotinamide/STZ-induced); conditions: 0.1 mg/kg oral
Experimental: Resveratrol was first dissolved in DMS0 and diluted to 0.05 mg, 0.1 mg and 0.5 mg per ml wit normal saline. Animals were fed with desired amounts of drug solutions though tubing from the mouth into the stomach. B. NIDDM: Male SD rats were fasted for 48 hrs and anesthetized by intraperitoneal injection of pentobarbital at 30 mg/kg body weight. Animals were then injected with nicotinamide (100 mg/kg, ip) and streptozotocin (65 mg/kg, iv). Four weeks later, plasma glucose concentration was determined by the glucose oxidase method (Chemistry Analyzer; Autoanalyzer Quik-Lab., Ames, Spain). Animals with fasting blood sugar levels around 200 mg/dl and the development of an obese phenotype are classified as being induced to NIDDM. Normal, IDDM, and NIDDM SD rats were fasted for 8 hrs and anesthetized by pentobarbital (30 mg/kg, ip). Animals were fed with different dosages of resveratrol (0.05 mg, 0.1 mg, or 0.5 mg per kg body weight), and blood samples were then collected from femoral vein at the time points 0, 60, 90, and 120 min. Ten μl plasma was mixed with 1 ml glucose kit reagent and incubated at 37° C. for 10 min. The blood sugar level was determined as described. Data were expressed as mean±standard error (S.E.). […] NIDDM rats were fed with resveratrol and blood sugar was then measured as described.

[1] = system: NIDDM insulin-resistant SD rats; assay: Antihyperglycemic effect in NIDDM insulin-resistant SD rats (insulin-induced)
Experimental: Resveratrol was first dissolved in DMS0 and diluted to 0.05 mg, 0.1 mg and 0.5 mg per ml wit normal saline. Animals were fed with desired amounts of drug solutions though tubing from the mouth into the stomach. A. Insulin Resistance: Male SD rats were intraperitoneally injected with insulin (Monotard®HM; Novo Nordisk, Bagsvaerd, Denmark, 0.5 IU/kg, tid) for 2 weeks. The development of insulin resistance is confirmed by a tolbutamide test (11). Normal, IDDM, and NIDDM SD rats were fasted for 8 hrs and anesthetized by pentobarbital (30 mg/kg, ip). Animals were fed with different dosages of resveratrol (0.05 mg, 0.1 mg, or 0.5 mg per kg body weight), and blood samples were then collected from femoral vein at the time points 0, 60, 90, and 120 min. Ten μl plasma was mixed with 1 ml glucose kit reagent and incubated at 37° C. for 10 min. The blood sugar level was determined as described. […]. Data were expressed as mean±standard error (S.E.). Statistical analysis was performed using ANOVA (analysis of variance) followed by Dunnett test, and the significant difference was set at P<0.05. NIDDM rats were fed with resveratrol and blood sugar was then measured as described.

IDDM SD rats = assay: Antihyperglycemic effect in IDDM SD rats (STZ-induced); conditions: 90 min after drug feeding
Experimental: Resveratrol was first dissolved in DMS0 and diluted to 0.05 mg, 0.1 mg and 0.5 mg per ml wit normal saline. Animals were fed with desired amounts of drug solutions though tubing from the mouth into the stomach. Male rats were fasted for […] and anesthetized by intraperitoneal injection of pentobarbital at 30 mg/kg body weight. Animals were then injected with freshly prepared streptozotocin (STZ) solution at 65 mg/kg body weight intravenously. Three days later, blood sugar was measured. Animals with blood sugar levels above 400 mg/dl and symptoms of polyphagia, polyuria and polydipsia are classified as being induced to IDDM. Normal, IDDM, and NIDDM SD rats were fasted for 8 hrs and anesthetized by pentobarbital (30 mg/kg, ip). Animals were fed with different dosages of resveratrol (0.05 mg, 0.1 mg, or 0.5 mg per kg body weight), and blood samples were then collected from femoral vein at the time points 0, 60, 90, and 120 min. Ten μl plasma was mixed with 1 ml glucose kit reagent and incubated at 37° C. for 10 min. The blood sugar level was determined as described. Data were expressed as mean±standard error (S.E.). […] IDDM SD rats were fed with resveratrol at 0.05 mg, 0.1 mg, or 0.5 mg per kg body weight and the blood sugar was measured at 90 min after drug feeding.

[2] = system: SD rats injected with insulin; assay: Development of insulin resistance and body weight increase in insulin-injected SD rats
Experimental: A. Insulin Resistance: Male SD rats were intraperitoneally injected with insulin (Monotard®HM; Novo Nordisk, Bagsvaerd, Denmark, 0.5 IU/kg, tid) for 2 weeks. The development of insulin resistance is confirmed by a tolbutamide test (11). Male SD rats were intraperitoneally injected with insulin at 0.5 IU/kg, tid with or without resveratrol feeding (0.5 mg/kg BW, bid) Animals without resveratrol feeding started to develop insulin resistance on day 16.5±1.5. In contrast, development of insulin resistance in the resveratrol-fed animals was delayed till 23.5±1.5 days. In addition, resveratrol reduced the body weight increase by 6% compared with the untreated insulin-resistant animals (FIG. 6)

normal SD rats = assay: Hypoglycemic effect in normal SD rats (blood sugar); conditions: for reduction of blood sugar: normal SD rats, 90 min after drug feeding
Experimental: Eight week-old Sprague Dawley (SD) rats (body weight from 200 gm to 250 gm) were maintained in the Animal Center of the Chang (Jung Memorial Hospital, under an ambient temperature of 25±1° C. and a light-dark period of 12 hrs. Animals were fed with normal chow and water. Resveratrol was first dissolved in DMS0 and diluted to 0.05 mg, 0.1 mg and 0.5 mg per ml wit normal saline. Animals were fed with desired amounts of drug solutions though tubing from the mouth into the stomach. Normal, IDDM, and NIDDM SD rats were fasted for 8 hrs and anesthetized by pentobarbital (30 mg/kg, ip). Animals were fed with different dosages of resveratrol (0.05 mg, 0.1 mg, or 0.5 mg per kg body weight), and blood samples were then collected from femoral vein at the time points 0, 60, 90, and 120 min. Ten μl plasma was mixed with 1 ml glucose kit reagent and incubated at 37° C. for 10 min. The blood sugar level was determined as described. […]. Data were expressed as mean±standard error (S.E.). Statistical analysis was performed using ANOVA (analysis of variance) followed by Dunnett test, and the significant difference was set at P<0.05. Male SD rats were fed with resveratrol at 0.05 mg, 0.1 mg, or 0.5 mg per kg body weight and plasma glucose level was measured at 90 min after drug feeding.

Oc1ccc(C=Cc2cc(O)cc(O)c2)cc1 [resveratrol]
reduction of blood sugar (NIDDM SD rats): 28.3±1.67%
reduction of blood sugar ([1]; NIDDM insulin-resistant SD rats, 0.5 mg/kg oral, 90 min after drug feeding): 32.1±1.62%
hypoglycemic effect, dose dependence ([1]; NIDDM insulin-resistant rats, oral): dose-dependent hypoglycemic effect
reduction of blood sugar (IDDM SD rats; 0.1 mg/kg oral): 21.00±5.84%
reduction of blood sugar (IDDM SD rats; 0.5 mg/kg oral): 23.00±1.89%
time to development of insulin resistance ([2]; insulin 0.5 IU/kg ip tid with resveratrol feeding 0.5 mg/kg BW bid, without resveratrol day 16.5±1.5): 23.5 ± 1.5 days
reduction of body weight increase compared with untreated insulin-resistant animals ([2]; insulin-resistant SD rats, resveratrol 0.5 mg/kg BW bid): 6%
reduction of blood sugar (normal SD rats; 0.1 mg/kg oral): 25.72±4.03%
reduction of blood sugar (normal SD rats; 0.5 mg/kg oral): 35.53±2.0%
blood sugar reduction, dose dependence (normal SD rats; normal SD rats, 0.05, 0.1, 0.5 mg/kg oral, 90 min): dose-dependent manner
